Test results taken from patent EP0346187B1, “Novel GTP binding protein and method for production thereof” (MITSUBISHI KASEI CORPORATION, priority 1988, dated 1989).

How the values were obtained:
[1] = biological target: T1, G protein (Smg p21), molecular weight of 22,000, purified from bovine brain (Bos taurus, UniProt P62833); assay: GTP binding activity of purified G protein (Smg p21)
T1 construct: a crude membrane fraction was extracted with sodium cholate from bovine brain; from tissue; host or cells: bovine brain (crude membrane fraction, cholate extract)
T1 sequence (P62833 1-181 limits assumed): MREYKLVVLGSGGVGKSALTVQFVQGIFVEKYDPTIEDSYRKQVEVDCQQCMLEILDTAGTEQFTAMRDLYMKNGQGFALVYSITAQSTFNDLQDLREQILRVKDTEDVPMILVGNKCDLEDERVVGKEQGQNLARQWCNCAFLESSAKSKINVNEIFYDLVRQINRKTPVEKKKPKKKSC
Source text: (§1) • (a) Crude G protein with molecular weight (relative molecular weight : Mr) of 20,000 to 25,000 was obtained in accordance with the method of Kikuchi, et al. (Journal of the Biological Chemistry, 263, p 2897 - 2904, 1988). Specifically, a crude membrane fraction was extracted with sodium cholate from bovine brain, and the fraction was fractionated on Ultrogel AcA-44 column chromatography to separate and obtain a fraction at the second peak among two peaks showing GTP binding activity. The fraction thus obtained was purified on phenyl Sepharose CL-4B column chromatography and then further fractionated on hydroxyapatite column chromatography to separate and obtain a fraction at the first peak. Then, the first peak fraction was fractionated on Mono Q HR 5/5 column chromatography and the fraction at the first peak was separated and collected to obtain a crude G protein with Mr of 20,000 - 25,000. • (b) The crude G protein obtained in (a) above was subjected to Mono S HR 5/5 column chromatography equilibrated with a buffer solution of 50 mM sodium acetate (pH, 5.0) containing 1 mM EDTA, 1mM dithiothreitol, 5 mM magnesium chloride and 0.6 % CHAPS (3- [(3-cholamidopropyl) dimethylammonio]-1-propane sulfonate). After washing with 5 ml of the same buffer solution, it was eluted out by the same buffer solution (20 ml) with a concentration gradient of sodium chloride (0 - 1.0 M). […]

[2] = biological target: T1, G protein (Smg p21), molecular weight of 22,000, purified from bovine brain; assay: GTP hydrolyzing activity of purified G protein (Smg p21); assay type: biochemical
Source text: as §1

With `CCN1C(=O)C=CC1=O` [N-ethylmaleimide] the “Effect of N-ethylmaleimide on GTP Binding Activity” value ([1]; no concentration stated, presence of dithiothreitol blocks the inhibition) was “inhibited”.
Molecule `Nc1nc2c(ncn2[C@@H]2O[C@H](COP(=O)(O)OP(=O)(O)OP(=O)(O)O)[C@@H](O)[C@H]2O)c(=O)[nH]1` [GTP, guanosine-5-triphosphate] has a Kd ([1]; purified G protein (Smg p21) from bovine brain) of 0.03 ± 0.006 µM and a GTP Hydrolyzing Activity (number of turnovers) [2] of 0.005 min⁻¹.
